Measured values reported in patent US20210139857A1, “Intestinal organoid co-culture systems and methods for treating or preventing a disease or disorder associated with immune response-mediated tissue injury” (NEW YORK UNIVERSITY, priority 2019, published 2021).

Experiments:
Atg16L1^ΔIEC mice = assay: preclinical GVHD model: allo-HCT after chemotherapy conditioning, GSK547 or control chow; format: in vivo, mouse; settings: GSK547 chow started 10 days before allo-HCT, P<0.05
From the text: FIG. 1F depicts the survival of chemotherapy-pretreated Atg16L1^f/f (f/f) and Atg16L1^ΔIEC (ΔIEC) mice which received GSK547 or control chow and were transplanted with 5×10^6 T cell-depleted BM cells with 4×10^6 splenic T cells from donor LP/J mice. n=8 (f/f, control), 8 (ΔIEC, control), 8 (f/f, GSK547), and 8 (ΔIEC, GSK547). GSK547 was started 10 days before allo-HCT, and continued until the end of the study. FIG. 1G depicts the clinical disease scores evaluated every 7 days after allo-HCT. Data points in FIG. 1B, FIG. 1D, and FIG. 1F represent individual mice, and data points in FIG. 1C, FIG. 1E, and FIG. 1G are mean of clinical scores of viable mice. Bars represent means±SEM, and survival data in FIG. 1B, FIG. 1D, and FIG. 1F are combined results of 2 experiments performed independently. FIG. 1B, FIG. 1D, and FIG. 1F were analyzed with the Mantel-Cox log rank test.
In brief, female B6 background mice were intraperitoneally injected with busulfan (20 mg/kg/day) for 5 days, followed by cyclophosphamide (100 mg/kg/day) for 3 days. Days −2 and −1 were rest days. […] Recipient mice were monitored daily for survival and weekly quantified for clinical GVHD for 5 clinical parameters (weight loss, hunched posture, activity, fur ruffling, and skin lesions) on a scale from 0 to 2. […]

[1] = system: ATG16L1^T300A homozygous human organoids; assay: human organoid viability assay, TNFα-induced death; format: cell-based; settings: 50 ng/ml TNFα, 48 hours; 100 nM Ruxolitinib, 1 μM GSK547, 20 μM Necrostatin-1s, 2 μM NSA; P<0.0001
Experimental: N=14 (Nonrisk) and 6 (T300A/T300A). Statistical significance was validated with Fisher's exact test. FIG. 13B depicts a combined organoid viability in (A). N=14 (Non-risk) and 6 (T300A/T300A). FIG. 13C and FIG. 13D depict representative images (FIG. 13C) and viability (FIG. 13D) of human small intestinal organoids stimulated with or without 50 ng/ml TNFα, 100 nM Ruxolitinib, 1 μM GSK547, 20 μM Necrostatin-1s (Nec-1s), and 2 μM necrosulfonamide (NSA) for 48 hours. Scale bars represent 400 μm. Data points in FIG. 13B represent an average viability of individual organoids in FIG. 12, and data points in FIG. […] are mean of technical replicates. At least 2 independent experiments were performed. ***p<0.001, ****p<0.0001.
Mouse small intestinal and colonic crypts were isolated and cultured. Crypts of proximal small intestine were counted and embedded in Matrigel at 10,000 crypts/ml and cultured in DMEM/F-12 in the presence of 100 IU penicillin and 100 μg/ml streptomycin (Corning), 125 μg/ml gentamicin (Gibco), 2 mM l-glutamine (Corning), 20 ng/ml mEGF (PeproTech), 100 ng/ml mNoggin (R&D Systems), and 500 ng/ml mR-Spondin 1 (R&D Systems), hereafter referred as ENR medium. Crypts of colon were counted and embedded in Matrigel and cultured in the ENR medium plus 50 ng/ml Wnt-3a, 1×B-27, and N-2 supplement (Thermo Fisher Scientific). Surface area of organoids was quantified with Image J. For organoid viability assays, crypts were embedded in 10 μl of Matrigel at 5,000 crypts/ml and cultured in 96-well culture plate in triplicate with or without 20 ng/ml mTNFα (PeproTech) and 100 nM Ruxolitinib (Selleckchem). Percent viable organoids was determined by daily quantification of the number of intact organoids. Opaque organoids with condensed structures or those that have lost adherence were excluded. Dead organoids were marked by staining with 100 μg/ml propidium iodide (SIGMA-ALDRICH). Human intestinal organoids were cultured (Neil et al., 2019, Nat Microbiol 4, 1737-1749). […]

Compound	survival after allo-HCT (Atg16L1^ΔIEC mice; BM + T cells from LP/J donors)	clinical GVHD score after allo-HCT (Atg16L1^ΔIEC mice; scored every 7 days)	viability of human organoids, TNFα-induced death [1]
N#Cc1cc(N2CCC(C(=O)N3N=CC[C@H]3c3cc(F)cc(F)c3)CC2)ncn1 [GSK547]	significantly better survival	significantly better	significantly protected
CN1C(=O)NC(Cc2c[nH]c3c(Cl)cccc23)C1=O (centres unmarked) [Necrostatin-1s]			significantly protected
COc1nccnc1NS(=O)(=O)c1ccc(NC(=O)/C=C/c2ccc([N+](=O)[O-])s2)cc1 [Necrosulfonamide]			significantly protected
